Experiments:
Type in all cases: functional
Cavia porcellus [1] = species: Cavia porcellus; experiment: Integrated vasodilating potency (IVP) (the product of compound-induced maximum percent decrease in the perfusion pressure and the duration of the effect in minutes at 100 ug (ia))
Rattus norvegicus = experiment: Hypotensive index (HI) measured as the area under the time-hypotensive response curve for 6-h period at 30 mg/kg, po
Cavia porcellus [2] = species: Cavia porcellus; experiment: Integrated vasodilating potency (the product of compound-induced maximum percent decrease in the perfusion pressure and the duration of the effect in minutes at 100 ug (ia); Coronary vasoconstricting action)

| SMILES | IVP (Cavia porcellus [1]) | HI (Rattus norvegicus) | IVP (Cavia porcellus [2]) |
| --- | --- | --- | --- |
| CC(C)N1CCc2c(C3CC3)nc3ncnn3c21 | 45 | 5 |  |
| CCCCCCCCCCN1CCc2c(C)nc3ncnn3c21 |  | 7 |  |
| Cc1nc2ncnn2c2c1CCCN2Cc1ccccc1F |  | 0 | Coronary vasoconstricting action |
| CCC1Cc2c(C)nc3ncnn3c2N1C(C)(C)C (centres undefined) | 227 | 12 |  |
| Cc1nc2ncnn2c2c1CCN2CCOCCO | 22 | 10 |  |
| Cc1nc2ncnn2c2c1CC(C)N2Cc1ccccc1Cl (centres undefined) | 80 | 8 |  |
| Cc1nc2nc(-c3ccccc3)nn2c2c1CCN2CCCN1CCCC1 | 105 | 44 |  |
| Cc1nc2ncnn2c2c1CCN2C(C)c1ccccc1 (centres undefined) | 137 | 5 |  |
| Cc1nc2ncnn2c2c1CCN2Cc1ccccc1Cl | 86 | 30 |  |
| COc1cc(C(=O)OCCN2CCc3c(C)nc4ncnn4c32)cc(OC)c1OC | 21 | 0 |  |
| Cc1ccc(CN2CCc3c(C)nc4ncnn4c32)cc1 | 119 | 15 |  |
| CCCCN1CCc2c(C)nc3ncnn3c21 | 30 | 145 |  |
| Cc1nc2ncnn2c2c1CC(C)N2C(C)(C)C (centres undefined) | 47 |  |  |
| C=CCN1CCc2c(C)nc3ncnn3c21 | 56 | 70 |  |
| COc1ccc(CN2CCc3c(C)nc4ncnn4c32)cc1OC | 174 | 55 |  |
| Cc1nc2nc(-c3ccccc3)nn2c2c1CCN2C(C)(C)C |  | 0 | Coronary vasoconstricting action |
| Cc1nc2nc(-c3ccc(Cl)cc3)nn2c2c1CCN2C(C)C |  | 0 | Coronary vasoconstricting action |
| Cc1nc2ncnn2c2c1CCN2 | 6 | 55 |  |
| Cc1nc2nc(C)c3c(n2n1)N(Cc1ccccc1Cl)CC3 | 15 | 18 |  |
| COc1ccc(CN2c3c(c(C)nc4ncnn34)CC2C)cc1 (centres undefined) | 82 | 11 |  |
| Cc1nc2ncnn2c2c1CCN2Cc1ccc(Cl)cc1 | 250 | 145 |  |
| CCCCN1c2c(c(C)nc3ncnn23)CC1CC (centres undefined) | 120 | 10 |  |
| CCCCCN1CCc2c(C)nc3ncnn3c21 | 15 | 6 |  |
| CCCCCCN1CCc2c(C)nc3ncnn3c21 | 14 | 10 |  |
| Cc1nc2ncnn2c2c1ccn2CC(C)C | 38 | 15 |  |
| Cc1nc2ncnn2c2c1CCS2 | 0 | 10 |  |

| SMILES | IVP (Cavia porcellus [1]) | HI (Rattus norvegicus) | IVP (Cavia porcellus [2]) |
| --- | --- | --- | --- |
| Cc1nc2ncnn2c2c1NCCN2C | 0 | 5 |  |
| Cc1nc2ncnn2c2c1CCN2CCCN(CCO)CCO | 0 | 45 |  |
| Cc1nc2ncnn2c2c1CCN2CCCO | 12 | 105 |  |
| COc1ccc(Cn2ccc3c(C)nc4ncnn4c32)cc1 | 55 | 0 |  |
| Cc1nc2ncnn2c2c1CCN2CC(C)(C)C | 760 | 40 |  |
| Cc1nc2ncnn2c2c1CCN2CCCN1CCCC1 | 0 | 75 |  |
| Cc1nc2nc(-c3ccccc3)nn2c2c1CCN2C(C)C |  | 0 | Coronary vasoconstricting action |
| Cc1nc2ncnn2c2c1CCN2Cc1ccccc1F | 351 | 5 |  |
| CC(C)(C)N1CCc2c(C3CC3)nc3ncnn3c21 | 125 | 20 |  |
| Cc1nc2ncnn2c2c1CCN2CCN1CCOCC1 | 16 | 5 |  |
| CCN(CC)CCN1CCc2c(C)nc3ncnn3c21 | 1 | 0 |  |
| COc1ccc(-c2nc3nc(C)c4c(n3n2)N(C(C)(C)C)CC4)cc1 |  | 13 | Coronary vasoconstricting action |
| Cc1nc2ncnn2c2c1N(C)CCN2C | 45 | 25 |  |
| CNC1(C)C2CCC(C2)C1(C)C (centres undefined) [MECAMYLAMINE] |  | 110 |  |
| Cc1nc2ncnn2c2[nH]ccc12 | 45 | 60 |  |
| Cc1nc2ncnn2c2c1CCN2C(C)(C)CC(C)(C)C | 32 |  |  |
| Cc1nc2ncnn2c2c1CCN2CCCN1CCCCC1 | 5 | 45 |  |
| Cc1nc2ncnn2c2c1CCN2C1CCCCCC1 | 440 | 45 |  |
| Cc1nc2nc(C)c3c(n2n1)N(C(C)(C)C)CC3 | 18 | 35 |  |
| CCCCN1CCc2c(C)nc3nc(-c4ccccc4)nn3c21 |  | 10 | Coronary vasoconstricting action |
| Cc1nc2ncnn2c2c1CCN2CCN1CCCC1 | 2 | 0 |  |
| CCCCN(CCCC)CCCN1CCc2c(C)nc3ncnn3c21 | 0 | 40 |  |
| COc1cc(CN2CCc3c(C)nc4ncnn4c32)cc(OC)c1OC | 109 | 15 |  |
| COc1ccc(-c2nc3nc(C)c4c(n3n2)N(CCCN2CCCC2)CC4)cc1 | 0 | 0 |  |
| Cc1nc2ncnn2c2c1CCN2CCCN(C)C | 0 | 10 |  |
| Cc1nc2ncnn2c2c1CC(C)N2C(C)C (centres undefined) | 10 | 0 |  |

| SMILES | IVP (Cavia porcellus [1]) | HI (Rattus norvegicus) | IVP (Cavia porcellus [2]) |
| --- | --- | --- | --- |
| Cc1nc2ncnn2c2c1CCN2c1c(Cl)cccc1Cl | 7 | 0 |  |
| Cc1nc2ncnn2c2c1CCN2C(C)CC(C)C (centres undefined) | 86 | 5 |  |
| CCCN1CCc2c(C)nc3ncnn3c21 | 193 | 15 |  |
| Cc1nc2ncnn2c2c1CCN2CCO | 12 | 0 |  |
| Cc1nc2ncnn2c2c1CCN2CCCOC(=O)c1cccnc1 | 24 | 30 |  |
| Cc1nc2ncnn2c2c1CCN2CC(C)O (centres undefined) |  | 5 | Coronary vasoconstricting action |
| Cc1nc2ncnn2c2c1CCN2C(C)C | 24 | 0 |  |
| Cc1nc2nc(C)c3c(n2n1)N(CCCN1CCCC1)CC3 | 0 | 10 |  |
| Cc1nc2ncnn2c2c1ccn2Cc1ccccc1Cl | 22 | 12 |  |
| Cc1nc2ncnn2c2c1CCN2C1CCCCCCC1 |  | 15 | Coronary vasoconstricting action |
| Cc1nc2ncnn2c2c1CCN2CCCN1CCOCC1 | 3 | 40 |  |
| Cc1nc2ncnn2c2c1CC[N+]2(C)C(C)(C)C.[I-] (centres undefined) | 9 | 0 |  |
| Cc1nc2ncnn2c2c1CCN2C(C)C(O)c1ccccc1 (centres undefined) | 8 | 0 |  |
| CCCCCCCCCCCCN1CCc2c(C)nc3ncnn3c21 |  | 10 |  |
| Cc1nc2ncnn2c2c1CCN2CCN1CCCCC1 | 2 | 10 |  |
| Cc1nc2ncnn2c2c1CCN2C(C)(C)CO | 38 | 75 |  |
| CC(C)(C)CN1CCc2c(C3CC3)nc3ncnn3c21 | 50 | 20 |  |
| N=C(N)NCCN1CCCCCCC1.N=C(N)NCCN1CCCCCCC1.O=S(=O)(O)O [GUANETHIDINE SULFATE] |  | 195 |  |
| c1ccc(CCN2CCc3c(C4CC4)nc4ncnn4c32)cc1 | 180 | 12 |  |
| Cc1nc2ncnn2c2c1CCN2c1ccccc1 | 72 | 15 |  |
| CCN1CCc2c(C)nc3ncnn3c21 | 12 | 10 |  |
| CCCN1CCN(CCCN2CCc3c(C)nc4ncnn4c32)CC1 | 3 | 0 |  |
| Cc1nc2ncnn2c2c1ccn2C(C)(C)C | 246 | 160 |  |
| Cc1cn(C(C)(C)C)c2c1c(C)nc1ncnn12 | 330 | 20 |  |
| Cc1nc2ncnn2c2c1CCN2CCC(=O)c1ccccc1 | 32 | 17 |  |
| COc1ccc(-c2nc3nc(C)c4c(n3n2)N(C)CC4)cc1 | 0 | 0 |  |

| SMILES | IVP (Cavia porcellus [1]) | HI (Rattus norvegicus) | IVP (Cavia porcellus [2]) |
| --- | --- | --- | --- |
| Cc1nc2ncnn2c2c1CCN2C(C)COc1ccccc1 (centres undefined) | 63 | 65 |  |
| CCC(C)N1CCc2c(C)nc3ncnn3c21 (centres undefined) | 5 | 100 |  |
| Cc1nc2ncnn2c2c1CCN2CCOC(=O)c1cccnc1 | 7 | 30 |  |
| Cc1nc2ncnn2c2c1CCN2C | 50 | 10 |  |
| COc1cc(C(=O)OCCCN2CCc3c(C)nc4ncnn4c32)cc(OC)c1OC | 26 | 10 |  |
| Cc1nc2ncnn2c2c1CCN2c1ccc(S(N)(=O)=O)cc1 | 14 | 0 |  |
| Cc1nc2ncnn2c2c1CC(C)N2Cc1ccccc1F (centres undefined) | 64 | 5 |  |
| Cc1nc2ncnn2c2c1CCN2CCS | 285 | 10 |  |
| CCC1Cc2c(C)nc3ncnn3c2N1Cc1ccccc1F (centres undefined) | 67 | 0 |  |
| Cc1nc2ncnn2c2c1CCCO2 | 0 |  |  |
| Cc1nc2ncnn2c2c1CCN2CCc1ccccc1 | 100 | 5 |  |
| Cc1nc2ncnn2c2c1C(C)CN2C(C)(C)C (centres undefined) | 333 | 20 |  |
| Cc1nc2ncnn2c2c1CCN2CC(C)C | 107 | 60 |  |
| Cc1nc2ncnn2c2c1CCN2C1CCCCC1 | 65 | 12 |  |
| COc1ccc(CN2CCc3c(C)nc4ncnn4c32)cc1 | 55 | 13 |  |
| Cc1nc2ncnn2c2c1CCN2Cc1ccccc1 | 46 | 170 |  |
| Clc1ccccc1CN1CCc2c(C3CC3)nc3ncnn3c21 | 5 |  |  |
| CCC1Cc2c(C)nc3ncnn3c2N1C(C)C (centres undefined) | 0 | 20 |  |
| Cc1nc2ncnn2c2c1CCN2CCN1CCN(C)CC1 | 20 | 10 |  |
| COc1ccc(CCN2CCc3c(C)nc4ncnn4c32)cc1OC | 11 | 15 |  |
| CCCCN1c2c(c(C)nc3ncnn23)CC1C (centres undefined) | 50 | 45 |  |
| Cc1nc2ncnn2c2c1CCN2CCC(C)C | 118 | 5 |  |
| COc1cc(-c2nc3nc(C)c4c(n3n2)N(C(C)(C)C)CC4)cc(OC)c1OC | 222 | 50 |  |
